In one assay the test system is MV-3 cells. Description: T-cell - TCB - MV3 killing assay. The class given is cell-based. As to conditions: Homo sapiens, 120 h, T-cells + MCSP-TCB on MV-3 RFP cells, 5 d; for Emax: 20 μM reference compound A1 = 100%, read-out: MSCP TCB killing MV-3 cells 5 d Emax; for EC50: read-out: MSCP TCB killing MV-3 cells 5 d EC50. The protocol: All culturing steps are executed at 5% CO2, 37° C. and 95% humidity.
MV-3 RFP cells are cultured in MV-3 medium (DMEM+10% FBS, 1× PenStrep and 0.5 μg/mL Puromycin) for at least 3 weeks. Cultured MV-3 cells at 80% confluency are washed once with PBS−− and trypsinized until detached. […] Cells are seeded with 100 μL/well into a 96-well plate (TTP, #92696), and placed for 40 minutes without moving at room temperature in order to achieve evenly distributed attachment of cells. Plates are then incubated until further use.
On the next day, expanded primary human T-cells are thawed and resuspended in T-cell medium to 4*10^6 cells/mL. For 3 hours, they are cultured in a 6-well plate with 6 mL per well at maximum. After culturing the T-cells, they are filtered through a cell strainer (Miltenyi Biotech, #130-041-407), counted again, and cell concentration is adjusted to 2*10^6 cells/mL.
MCSP-TCB or PBS are pre-diluted in T-cell medium (concentration depending on T-cell donor), 4 times more concentrated than the end-concentration. 60 μL/well of pre-dilutions are then distributed into a round bottom plate (Costar, #3799) according to plate layout. Compounds are added in a 9 pt dose response with the Tecan D300e Digital Dispenser, as well 4 times more concentrated than the end-concentration. DMSO concentration of all wells is adjusted to 0.8%, resulting in 0.2% as final concentration.
60 μL per well of T-cell suspension are added to the prepared round bottom plate and resuspended with a manual multichannel. 100 μL/well of the resuspended T-cell suspension including treatments are then transferred cautiously to the over-night cultured MV-3 cells according to plate layout. 100 μL T-cell medium only is added to the outer MV-3 wells only. Final compound DR is starting at 20 μM with a dilution factor of 3.333. Final TCB concentration is between […] and was determined for each T-cell donor individually by running TCB titrations. For each donor, a TCB concentration was chosen which corresponds to 10-20% of MV3 baseline cell killing in the absence of compound treatment. Positive control is the reference compound A1 which is added in a DR, as well as additional wells with only 20 μM. 20 μM of reference compound A1 represent the positive stimulator control, TCB only (DMSO wells) the neutral control.
After transfer of T-cells with treatment pre-dilutions, MV-3 cells are imaged by time-lapse microscopy using IncucyteZOOM™ (Essen BioScience, MI, USA). Imaging is performed every 3 hours for a total of 120 hours (1OX objective, phase and red image channels, acquisition time 400 ms, Green/Red 4614 optical module). RFP object count per well is analysed in the IncucyteZOOM™ Software (Version 2019B Rev2) with a mask that was previously created and optimized for MV-3 cells. Raw data is exported as object count/well and values are normalized as % TCL compared to wells with MV-3 only, representing 100% growth and therefore 0% TCL.
Calculated % TCL values are analysed in Genedata Screener using Roche Normalization PCT_POS_CTRL with MCSP-TCB only set as Neutral Control and 20 μM of the reference compound A1 set as Stimulator Control/100%.
Induced TCL by compounds without TCB treatment or toxicity (observed in the PBS condition) were be flagged.

A further assay deals with DGKalpha (Homo sapiens, UniProt P23743). The assay is described as follows: In vitro DGK inhibition assay (ADP Glo) run by Reaction Biology Corp., DGKalpha. As to conditions: 2 nM kinase, 500 uM DLG, 10-dose duplicate. The class given is biochemical. The arrangement: purchased Reaction Biology Corp. (assay service). Here is the method: (§1) DGK α and ζ kinases use ATP to phosphorylate the substrate 1,2-dilauroyl-sn-glycerol (DLG). ATP is converted to ADP as a result of this enzymatic reaction.
Chain of DGKalpha (P23743 whole entry, species assumed): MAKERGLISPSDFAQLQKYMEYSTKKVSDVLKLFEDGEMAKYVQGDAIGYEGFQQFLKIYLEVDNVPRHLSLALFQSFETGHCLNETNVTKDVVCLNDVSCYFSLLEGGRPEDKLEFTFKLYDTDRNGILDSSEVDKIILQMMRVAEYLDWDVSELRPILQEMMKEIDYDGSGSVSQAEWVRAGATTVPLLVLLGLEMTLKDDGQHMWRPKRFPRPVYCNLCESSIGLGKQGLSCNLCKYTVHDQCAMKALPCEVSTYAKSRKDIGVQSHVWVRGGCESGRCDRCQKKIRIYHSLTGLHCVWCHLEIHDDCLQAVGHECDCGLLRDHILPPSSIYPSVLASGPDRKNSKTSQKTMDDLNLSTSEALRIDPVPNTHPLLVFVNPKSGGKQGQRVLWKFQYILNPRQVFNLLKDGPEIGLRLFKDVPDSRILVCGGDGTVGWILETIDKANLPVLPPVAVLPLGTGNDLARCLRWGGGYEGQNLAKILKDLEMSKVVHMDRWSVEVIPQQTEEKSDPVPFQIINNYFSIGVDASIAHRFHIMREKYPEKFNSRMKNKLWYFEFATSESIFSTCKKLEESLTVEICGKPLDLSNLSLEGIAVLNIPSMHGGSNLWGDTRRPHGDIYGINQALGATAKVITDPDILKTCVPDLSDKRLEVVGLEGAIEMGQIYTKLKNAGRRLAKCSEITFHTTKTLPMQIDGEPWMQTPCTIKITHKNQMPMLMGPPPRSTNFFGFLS
(§2) After the kinase reaction, an ATP-depletion reagent is added to terminate the kinase reaction and deplete any remaining ATP, leaving only ADP. Second, a detection reagent is added to simultaneously convert ADP to ATP and allow the newly synthesized ATP to be converted to light using a coupled
(§3) luciferase/luciferin reaction.
(§4) DGK α and ζ kinase ADP Glo assays were ran by Reaction Biology Corp., 1 Great Valley Parkway, Suite 2, Malvern, 19355, PA, USA. Information provided by the service provider are the following: DGK α and ζ kinases were used at 2 nM final concentration. Reactions were carried out at 50 µM ATP. 500 uM of the substrate DLG (Dilauroyl-sn-glycerol) was used.

The next assay addresses DGKzeta (Homo sapiens, UniProt Q13574). Description: In vitro DGK inhibition assay (ADP Glo) run by Reaction Biology Corp., DGKzeta. The class given is biochemical. The arrangement: purchased Reaction Biology Corp. (assay service). The settings on record: 2 nM kinase, 500 uM DLG, 10-dose duplicate. Here is the method:
as §1, §2, §3, §4
For orientation: ADP-Glo turns the ADP formed in a reaction into a luminescent signal.

The results in this text go back to US20260035364A1, “BICYCLIC TETRAHYDROTHIAZEPINE DERIVATIVES” (Hoffmann-La Roche Inc., priority 2022, published 2026).

As usually defined, the Emax is the size of the effect at its maximum, as opposed to the concentration needed. By EC50 is commonly meant the concentration needed to bring the measured effect to its halfway point. By IC50 is commonly meant the concentration that gives 50% inhibition. A higher IC50 goes with weaker potency in that assay.

Chain of DGKzeta (Q13574 whole entry, species assumed): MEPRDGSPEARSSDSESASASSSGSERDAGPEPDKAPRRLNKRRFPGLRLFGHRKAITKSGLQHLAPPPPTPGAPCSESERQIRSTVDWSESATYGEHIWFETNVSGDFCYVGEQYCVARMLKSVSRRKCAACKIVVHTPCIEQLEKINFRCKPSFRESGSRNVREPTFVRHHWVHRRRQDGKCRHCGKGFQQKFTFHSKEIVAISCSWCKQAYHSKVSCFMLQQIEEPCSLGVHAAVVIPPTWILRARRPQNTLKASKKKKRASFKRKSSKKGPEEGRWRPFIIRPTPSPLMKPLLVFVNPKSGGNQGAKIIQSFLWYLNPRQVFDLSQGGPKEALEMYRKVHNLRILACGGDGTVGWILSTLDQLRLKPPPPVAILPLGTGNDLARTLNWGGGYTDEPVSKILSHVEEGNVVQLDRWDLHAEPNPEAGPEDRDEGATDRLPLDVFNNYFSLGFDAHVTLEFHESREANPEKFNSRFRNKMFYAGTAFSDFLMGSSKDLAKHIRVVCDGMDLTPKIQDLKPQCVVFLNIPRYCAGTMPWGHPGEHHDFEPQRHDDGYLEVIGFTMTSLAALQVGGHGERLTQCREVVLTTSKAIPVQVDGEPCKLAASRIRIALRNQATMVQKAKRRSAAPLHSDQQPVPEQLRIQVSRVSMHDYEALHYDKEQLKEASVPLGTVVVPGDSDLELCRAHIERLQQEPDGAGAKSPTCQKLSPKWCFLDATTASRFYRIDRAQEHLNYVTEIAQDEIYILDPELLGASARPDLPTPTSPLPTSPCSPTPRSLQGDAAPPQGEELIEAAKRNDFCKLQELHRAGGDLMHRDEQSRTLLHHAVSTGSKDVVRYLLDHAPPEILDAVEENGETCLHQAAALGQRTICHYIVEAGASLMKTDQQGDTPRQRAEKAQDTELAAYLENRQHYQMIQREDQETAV

Consider `CC(C)(c1nnc(-c2ccc3c(c2)N(Cc2ccc(-c4ccc(C(F)(F)F)cc4)nc2)C(=O)[C@@H](N)CS3(=O)=O)o1)S(C)(=O)=O` [Example 57, (3R)-3-amino-7-[5-(1-methyl-1-methylsulfonyl-ethyl)-1,3,4-oxadiazol-2-yl]-1,1-dioxo-5-[[6-[4-(trifluoromethyl)phenyl]-3-pyridyl]methyl]-2,3-dihydro-1λ6,5-benzothiazepin-4-one], for which, in the assay with MV-3 cells, the Emax worked out at 104% and the EC50 is 1850 nM.

As for `CC(C)(c1nc(-c2cc3c(cc2F)S(=O)(=O)C[C@H](N)C(=O)N3Cc2ccc(-c3noc(C(F)(F)F)n3)cc2)no1)S(C)(=O)=O` [Example 46, (3R)-3-amino-8-fluoro-7-[5-(1-methyl-1-methylsulfonyl-ethyl)-1,2,4-oxadiazol-3-yl]-1,1-dioxo-5-[[4-[5-(trifluoromethyl)-1,2,4-oxadiazol-3-yl]phenyl]methyl]-2,3-dihydro-1λ6,5-benzothiazepin-4-one], in the assay with MV-3 cells, the Emax was 65% and the EC50 was 25 nM.

As to `CC(C)(c1nnc(-c2ccc3c(c2)N(Cc2ccc(Oc4cccc(C(F)(F)F)c4)cc2)C(=O)[C@@H](N)CS3(=O)=O)o1)S(C)(=O)=O` [Example 38], in the assay on MV-3 cells, the Emax is 102% and the EC50 stood at 112 nM.

Take `CC(C)(c1nc(-c2cc3c(cc2F)S(=O)(=O)C[C@H](N)C(=O)N3Cc2ccc(OC(F)(F)F)cc2)no1)S(C)(=O)=O` [Example 44, (3R)-3-amino-8-fluoro-7-[5-(1-methyl-1-methylsulfonyl-ethyl)-1,2,4-oxadiazol-3-yl]-1,1-dioxo-5-[[4-(trifluoromethoxy)phenyl]methyl]-2,3-dihydro-1λ6,5-benzothiazepin-4-one]: in the assay with MV-3 cells, the Emax came out at 131% and the EC50 turned out to be 65 nM.

`CC(C)(c1nc(-c2cc3c(cc2F)S(=O)(=O)C[C@H](N)C(=O)N3Cc2ccc(Oc3ccccc3)cc2)no1)S(C)(=O)=O` [Example 30, (3R)-3-amino-8-fluoro-7-[5-(1-methyl-1-methylsulfonyl-ethyl)-1,2,4-oxadiazol-3-yl]-1,1-dioxo-5-[(4-phenoxyphenyl)methyl]-2,3-dihydro-1λ6,5-benzothiazepin-4-one]: in the assay on MV-3 cells, the Emax amounted to 100%. Further, the EC50 with MV-3 cells was found to be 41 nM. Further, the values for the IC50 at DGKalpha and against DGKzeta were 7.8 nM and 5.5 nM, respectively.

As for `CC(C)(c1nnc(-c2cc3c(cc2F)S(=O)(=O)C[C@H](N)C(=O)N3Cc2ccc(-c3ccc(C(F)(F)F)cc3)cc2)o1)S(C)(=O)=O` [Example 35, (3R)-3-amino-8-fluoro-7-[5-(1-methyl-1-methylsulfonyl-ethyl)-1,3,4-oxadiazol-2-yl]-1,1-dioxo-5-[[4-[4-(trifluoromethyl)phenyl]phenyl]methyl]-2,3-dihydro-1λ6,5-benzothiazepin-4-one], the IC50 on DGKalpha amounted to 7.1 nM; against DGKzeta, 6.6 nM.

For the molecule `CC(C)(c1nc(-c2cc3c(cc2F)S(=O)(=O)C[C@H](N)C(=O)N3Cc2ccc(-c3noc(C4CC4)n3)cc2)no1)S(C)(=O)=O` [Example 45, (3R)-3-amino-5-[[4-(5-cyclopropyl-1,2,4-oxadiazol-3-yl)phenyl]methyl]-8-fluoro-7-[5-(1-methyl-1-methylsulfonyl-ethyl)-1,2,4-oxadiazol-3-yl]-1,1-dioxo-2,3-dihydro-1λ6,5-benzothiazepin-4-one], in the assay with MV-3 cells, the maximal response (Emax) worked out at 67% and the EC50 is 35 nM.

For `CC(C)(c1nnc(-c2ccc3c(c2)N(Cc2ccc(Oc4cccc(F)c4)cc2)C(=O)[C@@H](N)CS3(=O)=O)o1)S(C)(=O)=O` [Example 33, (3R)-3-amino-5-[[4-(3-fluorophenoxy)phenyl]methyl]-7-[5-(1-methyl-1-methylsulfonyl-ethyl)-1,3,4-oxadiazol-2-yl]-1,1-dioxo-2,3-dihydro-1λ6,5-benzothiazepin-4-one], in the assay on MV-3 cells, the Emax stood at 117% and the EC50 was determined as 465 nM.

On to `CC(C)(c1nnc(-c2ccc3c(c2)N(Cc2ccc(Oc4ccccc4)cc2)C(=O)[C@@H](N)CS3(=O)=O)o1)S(C)(=O)=O` [Example 5, (3R)-3-amino-7-[5-(1-methyl-1-methylsulfonyl-ethyl)-1,3,4-oxadiazol-2-yl]-1,1-dioxo-5-[(4-phenoxyphenyl)methyl]-2,3-dihydro-1λ6,5-benzothiazepin-4-one], for which, in the assay on MV-3 cells, the Emax was determined as 154% and the EC50 amounted to 982 nM.

`CC(C)(c1nnc(-c2ccc3c(c2)N(Cc2ccc(-c4ccc(C(F)(F)F)cc4)cc2)C(=O)[C@@H](N)CS3(=O)=O)o1)S(C)(=O)=O` [Example 56, (3R)-3-amino-7-[5-(1-methyl-1-methylsulfonyl-ethyl)-1,3,4-oxadiazol-2-yl]-1,1-dioxo-5-[[4-[4-(trifluoromethyl)phenyl]phenyl]methyl]-2,3-dihydro-1λ6,5-benzothiazepin-4-one]: in the assay on MV-3 cells, the Emax was determined as 100% and the EC50 was determined as 105 nM. Moreover, the IC50 against DGKalpha was determined as 67.7 nM. Besides, the IC50 at DGKzeta amounted to 142 nM.

With `CC(C)(c1nnc(-c2ccc3c(c2)N(Cc2ccc(Oc4cccc(Cl)c4)cc2)C(=O)[C@@H](N)CS3(=O)=O)o1)S(C)(=O)=O` [Example 34, (3R)-3-amino-5-[[4-(3-chlorophenoxy)phenyl]methyl]-7-[5-(1-methyl-1-methylsulfonyl-ethyl)-1,3,4-oxadiazol-2-yl]-1,1-dioxo-2,3-dihydro-1λ6,5-benzothiazepin-4-one], in the assay with MV-3 cells, the Emax was 95% and the EC50 was 392 nM.
